Where two headings read alike, the source gives them in different places.
Key:
BTK = BTK (Homo sapiens, UniProt Q06187); experiment: BTK cell degradation in TMD-8 cells, HTRF assay; format: cell-based; design: endogenous in cells; host or cells: TMD-8 cells; details: 6 h treatment, IC50 (DC50) of BTK degradation
Summary of the method: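 TMD-8 cells treated 6 h with 8-dose series (6-fold dilutions, 0.2% DMSO final), then lysed and BTK quantified by HTRF (337/665/620 nm) after overnight antibody incubation at room temperature. Degradation normalized to DMSO high and low controls; DC50 and Dmax from four-parameter fit.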

HEK-293 cells = experiment: HEK-293 cytotoxicity detection (CellTiter-Glo); format: cell-based; details: 72 h incubation, CellTiter-Glo luminescence, read-out: HEK293
Summary of the method: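 HEK-293 cells exposed 72 h to 8 compounds doses (4-fold dilutions, top stock 5 mM at 500×) in 0.2% DMSO. Viability by CellTiter-Glo luminescence; inhibition normalised to DMSO high control and low control, IC50 from four-parameter curve fit.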

Sequence of BTK (Q06187 whole entry): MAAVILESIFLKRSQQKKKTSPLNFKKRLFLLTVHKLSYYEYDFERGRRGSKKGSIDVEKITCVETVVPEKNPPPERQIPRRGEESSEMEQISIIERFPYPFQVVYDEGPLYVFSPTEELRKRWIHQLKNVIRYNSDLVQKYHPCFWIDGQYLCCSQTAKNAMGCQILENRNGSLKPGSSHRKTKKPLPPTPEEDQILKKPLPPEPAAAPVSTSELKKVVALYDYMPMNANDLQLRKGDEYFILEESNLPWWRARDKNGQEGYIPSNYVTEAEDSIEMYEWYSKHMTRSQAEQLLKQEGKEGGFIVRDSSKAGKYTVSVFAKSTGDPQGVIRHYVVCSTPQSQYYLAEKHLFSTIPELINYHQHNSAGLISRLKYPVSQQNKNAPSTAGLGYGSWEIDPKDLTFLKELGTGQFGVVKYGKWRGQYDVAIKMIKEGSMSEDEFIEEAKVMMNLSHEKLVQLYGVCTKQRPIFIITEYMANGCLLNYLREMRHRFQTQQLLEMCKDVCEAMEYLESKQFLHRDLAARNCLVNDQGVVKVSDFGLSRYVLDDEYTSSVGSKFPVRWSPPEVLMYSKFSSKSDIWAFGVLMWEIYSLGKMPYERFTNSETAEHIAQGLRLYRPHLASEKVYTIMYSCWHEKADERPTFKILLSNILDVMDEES

SMILES	DC50 (BTK)	IC50 (HEK-293 cells)	IC50 (HEK-293 cells; Homo sapiens, 72 h)
Cc1cc(-c2nn3c(c2C(N)=O)Nc2ccc(N4CCN(CC5CCN(c6ccc(N7CCC(=O)NC7=O)cc6)CC5)CC4)cc2CC3)ccc1C(=O)Nc1cc(C(F)(F)F)ccn1 [Example B5, 7-(4-((1-(4-(2,4-dioxotetrahydropyrimidin-1(2H)-yl)phenyl)piperidin-4-yl)methyl)piperazin-1-yl)-2-(3-methyl-4-((4-(trifluoromethyl)pyridin-2-yl)carbamoyl)phenyl)-9,10-dihydro-4H-benzo[d]pyrazolo[1,5-a][1,3]diazepine-3-carboxamide]	1.46 nM		> 10000 nM
Cc1cc(C(=O)Nc2cc(C(F)(F)F)ccn2)ccc1-c1nn2c(c1C(N)=O)Nc1ccc(N3CCN(CC4CCN(c5ccc(N6CCC(=O)NC6=O)cc5)CC4)CC3)cc1CC2 [Example B6, 7-(4-((1-(4-(2,4-dioxotetrahydropyrimidin-1(2H)-yl)phenyl)piperidin-4-yl)methyl)piperazin-1-yl)-2-(2-methyl-4-((4-(trifluoromethyl)pyridin-2-yl)carbamoyl)phenyl)-9,10-dihydro-4H-benzo[d]pyrazolo[1,5-a][1,3]diazepine-3-carboxamide]	2.22 nM		> 10000 nM
Cc1cc(-c2nn3c(c2C(N)=O)Nc2ccc(N4CCN(CC5CCN(c6ccc(N7CCC(=O)NC7=O)cc6)CC5)CC4)cc2CC3)cc(C)c1C(=O)Nc1cc(C(F)(F)F)ccn1 [Example B7, 2-(3,5-dimethyl-4-((4-(trifluoromethyl)pyridin-2-yl)carbamoyl)phenyl)-7-(4-((1-(4-(2,4-dioxotetrahydropyrimidin-1(2H)-yl)phenyl)piperidin-4-yl)methyl)piperazin-1-yl)-9,10-dihydro-4H-benzo[d]pyrazolo[1,5-a][1,3]diazepine-3-carboxamide]	5.37 nM		> 10000 nM
COc1ccnc(NC(=O)c2ccc(-c3nn4c(c3C(N)=O)Nc3ccc(N5CCN(CC6CCN(c7ccc(N8CCC(=O)NC8=O)cc7)CC6)CC5)cc3CC4)cc2)c1 [Example B9, 7-(4-((1-(4-(2,4-dioxotetrahydropyrimidin-1(2H)-yl)phenyl)piperidin-4-yl)methyl)piperazin-1-yl)-2-(4-((4-methoxypyridin-2-yl)carbamoyl)phenyl)-9,10-dihydro-4H-benzo[d]pyrazolo[1,5-a][1,3]diazepine-3-carboxamide]	6.14 nM		> 10000 nM
Cc1ccnc(NC(=O)c2ccc(-c3nn4c(c3C(N)=O)Nc3ccc(N5CCN(CC6CCN(c7ccc(N8CCC(=O)NC8=O)cc7)CC6)CC5)cc3CC4)cc2)c1 [Example B10, 7-(4-((1-(4-(2,4-dioxotetrahydropyrimidin-1(2H)-yl)phenyl)piperidin-4-yl)methyl)piperazin-1-yl)-2-(4-((4-methylpyridin-2-yl)carbamoyl)phenyl)-9,10-dihydro-4H-benzo[d]pyrazolo[1,5-a][1,3]diazepine-3-carboxamide]	4.69 nM		> 10000 nM
NC(=O)c1c(-c2ccc(C(=O)Nc3cc(C4CC4)ccn3)cc2)nn2c1Nc1ccc(N3CCN(CC4CCN(c5ccc(N6CCC(=O)NC6=O)cc5)CC4)CC3)cc1CC2 [Example B11, 2-(4-((4-cyclopropylpyridin-2-yl)carbamoyl)phenyl)-7-(4-((1-(4-(2,4-dioxotetrahydropyrimidin-1(2H)-yl)phenyl)piperidin-4-yl)methyl)piperazin-1-yl)-9,10-dihydro-4H-benzo[d]pyrazolo[1,5-a][1,3]diazepine-3-carboxamide]	0.387 nM		> 10000 nM
NC(=O)c1c(-c2ccc(C(=O)Nc3cc(C(F)(F)F)ccn3)cc2)nn2c1Nc1ccc(N3CCN(CC4CCN(c5ccc(N6CCC(=O)NC6=O)cc5)CC4)CC3)cc1CC2 [Example B12, 7-(4-((1-(4-(2,4-dioxotetrahydropyrimidin-1(2H)-yl)phenyl)piperidin-4-yl)methyl)piperazin-1-yl)-2-(4-((4-(trifluoromethyl)pyridin-2-yl)carbamoyl)phenyl)-9,10-dihydro-4H-benzo[d]pyrazolo[1,5-a][1,3]diazepine-3-carboxamide]	5.82 nM		> 10000 nM
NC(=O)c1c(-c2ccc(C(=O)Nc3nccc(C(F)(F)F)c3F)cc2)nn2c1Nc1ccc(N3CCN(CC4CCN(c5ccc(N6CCC(=O)NC6=O)cc5)CC4)CC3)cc1CC2 [Example B13, 7-(4-((1-(4-(2,4-dioxotetrahydropyrimidin-1(2H)-yl)phenyl)piperidin-4-yl)methyl)piperazin-1-yl)-2-(4-((3-fluoro-4-(trifluoromethyl)pyridin-2-yl)carbamoyl)phenyl)-9,10-dihydro-4H-benzo[d]pyrazolo[1,5-a][1,3]diazepine-3-carboxamide]	0.408 nM		180 nM
NC(=O)c1c(-c2cc(F)c(C(=O)Nc3cc(C(F)(F)F)ccn3)c(F)c2)nn2c1Nc1ccc(N3CCN(CC4CCN(c5ccc(N6CCC(=O)NC6=O)cc5)CC4)CC3)cc1CC2 [Example B14, 2-(3,5-difluoro-4-((4-(trifluoromethyl)pyridin-2-yl)carbamoyl)phenyl)-7-(4-((1-(4-(2,4-dioxotetrahydropyrimidin-1(2H)-yl)phenyl)piperidin-4-yl)methyl)piperazin-1-yl)-9,10-dihydro-4H-benzo[d]pyrazolo[1,5-a][1,3]diazepine-3-carboxamide]	1.61 nM		75.4 nM

Continued by falling DC50 (BTK), values first:

DC50 (BTK)	SMILES	IC50 (HEK-293 cells)	IC50 (HEK-293 cells; Homo sapiens, 72 h)
1.82 nM	NC(=O)c1c(-c2ccc(C(=O)Nc3cc(C(F)(F)F)ccn3)c(F)c2)nn2c1Nc1ccc(N3CCN(CC4CCN(c5ccc(N6CCC(=O)NC6=O)cc5)CC4)CC3)cc1CC2 [Example B8, 7-(4-((1-(4-(2,4-dioxotetrahydropyrimidin-1(2H)-yl)phenyl)piperidin-4-yl)methyl)piperazin-1-yl)-2-(3-fluoro-4-((4-(trifluoromethyl)pyridin-2-yl)carbamoyl)phenyl)-9,10-dihydro-4H-benzo[d]pyrazolo[1,5-a][1,3]diazepine-3-carboxamide]		301 nM
1.32 nM	NC(=O)c1c(-c2ccc(C(=O)Nc3cccc(C(F)(F)F)n3)cc2)nn2c1Nc1ccc(N3CCN(CC4CCN(c5ccc(N6CCC(=O)NC6=O)cc5)CC4)CC3)cc1CC2 [Example B16, 7-(4-((1-(4-(2,4-dioxotetrahydropyrimidin-1(2H)-yl)phenyl)piperidin-4-yl)methyl)piperazin-1-yl)-2-(4-((6-(trifluoromethyl)pyridin-2-yl)carbamoyl)phenyl)-9,10-dihydro-4H-benzo[d]pyrazolo[1,5-a][1,3]diazepine-3-carboxamide]		232 nM
1.13 nM	Cc1c(C(=O)Nc2cc(C(F)(F)F)ccn2)ccc(-c2nn3c(c2C(N)=O)Nc2ccc(N4CCN(CC5CCN(c6ccc(N7CCC(=O)NC7=O)cc6)CC5)CC4)cc2CC3)c1F [Example B15, 7-(4-((1-(4-(2,4-dioxotetrahydropyrimidin-1(2H)-yl)phenyl)piperidin-4-yl)methyl)piperazin-1-yl)-2-(2-fluoro-3-methyl-4-((4-(trifluoromethyl)pyridin-2-yl)carbamoyl)phenyl)-9,10-dihydro-4H-benzo[d]pyrazolo[1,5-a][1,3]diazepine-3-carboxamide]		185 nM
0.842 nM	NC(=O)c1c(-c2ccc(C(=O)Nc3cc(C(F)(F)F)ccn3)cc2F)nn2c1Nc1ccc(N3CCN(CC4CCN(c5ccc(N6CCC(=O)NC6=O)cc5)CC4)CC3)cc1CC2 [Example B2, 7-(4-((1-(4-(2,4-dioxotetrahydropyrimidin-1(2H)-yl)phenyl)piperidin-4-yl)methyl)piperazin-1-yl)-2-(2-fluoro-4-((4-(trifluoromethyl)pyridin-2-yl)carbamoyl)phenyl)-9,10-dihydro-4H-benzo[d]pyrazolo[1,5-a][1,3]diazepine-3-carboxamide]		> 10000 nM
0.704 nM	NC(=O)c1c(-c2ccc(C(=O)Nc3ccccn3)cc2)nn2c1Nc1ccc(N3CCN(CC4CCN(c5ccc(N6CCC(=O)NC6=O)cc5)CC4)CC3)cc1CC2 [Example B4, 7-(4-((1-(4-(2,4-dioxotetrahydropyrimidin-1(2H)-yl)phenyl)piperidin-4-yl)methyl)piperazin-1-yl)-2-(4-(pyridin-2-ylcarbamoyl)phenyl)-9,10-dihydro-4H-benzo[d]pyrazolo[1,5-a][1,3]diazepine-3-carboxamide]		> 10000 nM
0.561 nM	NC(=O)c1c(-c2ccc(C(=O)Nc3cc(C(F)(F)F)ccn3)cc2)nn2c1Nc1ccc(N3CCN(CC4CCN(c5ccc(N6CCC(=O)NC6=O)cc5)CC4)CC3)cc1CC2 [Example B1, 7-(4-((1-(4-(2,4-dioxotetrahydropyrimidin-1(2H)-yl)phenyl)piperidin-4-yl)methyl)piperazin-1-yl)-2-(4-((4-(trifluoromethyl)pyridin-2-yl)carbamoyl)phenyl)-9,10-dihydro-4H-benzo[d]pyrazolo[1,5-a][1,3]diazepine-3-carboxamide]	> 10000 nM	
0.534 nM	Cc1cc(N2CCC(CN3CCN(c4ccc5c(c4)CCn4nc(-c6ccc(C(=O)Nc7cc(C(F)(F)F)ccn7)cc6)c(C(N)=O)c4N5)CC3)CC2)ccc1N1CCC(=O)NC1=O [Example B3, 7-(4-((1-(4-(2,4-dioxotetrahydropyrimidin-1(2H)-yl)-3-methylphenyl)piperidin-4-yl)methyl)piperazin-1-yl)-2-(4-((4-(trifluoromethyl)pyridin-2-yl)carbamoyl)phenyl)-9,10-dihydro-4H-benzo[d]pyrazolo[1,5-a][1,3]diazepine-3-carboxamide]		88.8 nM
